Assay results taken from US20120225062A1 (priority 2011, published 2012).
pEC50: −log10 of the molar value.

Tested on: KMS11 (human myeloma cell line)
Assay: Cell Proliferation Assay (CellTiter-Glo, 3 days)
Assay type: cell-based
Details: KMS-11, 72 h, KMS11-luc cells
Procedure: KMS11 (human myeloma cell line), were cultured in IMDM supplemented with 10% FBS, sodium pyruvate and antibiotics. Cells were plated in the same medium at a density of 2000 cells per well into 96 well tissue culture plates, with outside wells vacant, on the day of assay.
Test compounds supplied in DMSO were diluted into DMSO at 500 times the desired final concentrations before dilution into culture media to 2 times final concentrations. Equal volumes of 2× compounds were added to the cells in 96 well plates and incubated at 37° C. for 3 days.
After 3 days plates were equilibrated to room temperature and equal volume of CellTiter-Glow Reagent (Promega) was added to the culture wells. The plates were agitated briefly and luminescent signal was measured with luminometer.
Using the procedures of Cell Proliferation Assay, the EC50 concentrations of compounds of the examples were determined in KMS11 cells as shown in Table 4.

Row | Structure (SMILES) | pEC50
1 | C[C@@H]1C[C@H](N)C[C@H](c2ccncc2NC(=O)c2ccc(F)c(-c3c(F)cc([C@@H](C)O)cc3F)n2)C1 [Example 74, N-(4-((1R,3S,5S)-3-amino-5-methylcyclohexyl)pyridin-3-yl)-6-(2,6-difluoro-4-((R)-1-hydroxyethyl)phenyl)-5-fluoropicolinamide] | 7.82
2 | C[C@@H]1C[C@H](N)C[C@H](c2ccncc2NC(=O)c2ccc(F)c(-c3c(F)cc(C4(O)CCOCC4)cc3F)n2)C1 [Example 121, N-(4-((1R,3S,5S)-3-amino-5-methylcyclohexyl)pyridin-3-yl)-6-(2,6-difluoro-4-(4-hydroxytetrahydro-2H-pyran-4-yl)phenyl)-5-fluoropicolinamide] | 7.57
3 | C[C@H]1C[C@@H](c2ccncc2NC(=O)c2ccc(F)c(-c3c(F)cc(C4(O)CCOCC4)cc3F)n2)C[C@@H](N)[C@@H]1O [Example 122, N-(4-((1R,3R,4R,5S)-3-amino-4-hydroxy-5-methylcyclohexyl)pyridin-3-yl)-6-(2,6-difluoro-4-(4-hydroxytetrahydro-2H-pyran-4-yl)phenyl)-5-fluoropicolinamide] | 7.08
4 | C[C@H]1C[C@@H](c2ccncc2NC(=O)c2ccc(F)c(-c3c(F)cc(C4(F)CCOCC4)cc3F)n2)C[C@@H](N)[C@@H]1O [Example 127, N-(4-((1R,3R,4R,5S)-3-amino-4-hydroxy-5-methylcyclohexyl)pyridin-3-yl)-6-(2,6-difluoro-4-(4-fluorotetrahydro-2H-pyran-4-yl)phenyl)-5-fluoropicolinamide] | 7.23
5 | C[C@H]1C[C@@H](c2ccncc2NC(=O)c2ccc(F)c(-c3c(F)cc(C4(F)CCOCC4)cc3F)n2)C[C@@H](N)[C@H]1O [Example 129, N-(4-((1R,3R,4S,5S)-3-amino-4-hydroxy-5-methylcyclohexyl)pyridin-3-yl)-6-(2,6-difluoro-4-(4-fluorotetrahydro-2H-pyran-4-yl)phenyl)-5-fluoropicolinamide] | 7.11
6 | N[C@H]1CCC[C@@H](c2ccncc2NC(=O)c2ccc(F)c(-c3c(F)cc(OC4CCOCC4)cc3F)n2)C1 [Example 150, N-(4-((1R,3S)-3-aminocyclohexyl)pyridin-3-yl)-6-(2,6-difluoro-4-(tetrahydro-2H-pyran-4-yloxy)phenyl)-5-fluoropicolinamide] | 6.49
7 | COCCOc1cc(F)c(-c2nc(C(=O)Nc3cnccc3[C@@H]3CCC[C@H](N)C3)ccc2F)c(F)c1 [Example 151, N-(4-((1R,3S)-3-aminocyclohexyl)pyridin-3-yl)-6-(2,6-difluoro-4-(2-methoxyethoxy)phenyl)-5-fluoropicolinamide] | 6.47
8 | CCOCc1cc(F)c(-c2nc(C(=O)Nc3cnccc3[C@@H]3CCC[C@H](N)C3)ccc2F)c(F)c1 [Example 152, N-(4-((1R,3S)-3-aminocyclohexyl)pyridin-3-yl)-6-(4-(ethoxymethyl)-2,6-difluorophenyl)-5-fluoropicolinamide] | 6.68
9 | N[C@H]1CCC[C@@H](c2ccncc2NC(=O)c2ccc(F)c(-c3c(F)cc(C4(F)CCOCC4)cc3F)n2)C1 [Example 153, N-(4-((1R,3S)-3-aminocyclohexyl)pyridin-3-yl)-6-(2,6-difluoro-4-(4-fluorotetrahydro-2H-pyran-4-yl)phenyl)-5-fluoropicolinamide] | 6.44
10 | CC(C)OCc1cc(F)c(-c2nc(C(=O)Nc3cnccc3[C@@H]3CCC[C@H](N)C3)ccc2F)c(F)c1 [Example 155, N-(4-((1R,3S)-3-aminocyclohexyl)pyridin-3-yl)-6-(2,6-difluoro-4-(isopropoxymethyl)phenyl)-5-fluoropicolinamide] | 6.58
11 | N[C@H]1CCC[C@@H](c2ccncc2NC(=O)c2ccc(F)c(-c3c(F)cc(C4CCOCC4)cc3F)n2)C1 [Example 156, N-(4-((1R,3S)-3-aminocyclohexyl)pyridin-3-yl)-6-(2,6-difluoro-4-(tetrahydro-2H-pyran-4-yl)phenyl)-5-fluoropicolinamide] | 6.36
12 | CCC(=O)c1cc(F)c(-c2nc(C(=O)Nc3cnccc3[C@H]3C[C@@H](N)[C@H](O)[C@@H](C)C3)ccc2F)c(F)c1 [Example 157, N-(4-((1R,3R,4R,5S)-3-amino-4-hydroxy-5-methylcyclohexyl)pyridin-3-yl)-6-(2,6-difluoro-4-propionylphenyl)-5-fluoropicolinamide] | 7.17
13 | C[C@H]1C[C@@H](c2ccncc2NC(=O)c2ccc(F)c(-c3c(F)cc(C4(O)CC4)cc3F)n2)C[C@@H](N)[C@@H]1O [Example 158, N-(4-((1R,3R,4R,5S)-3-amino-4-hydroxy-5-methylcyclohexyl)pyridin-3-yl)-6-(2,6-difluoro-4-(1-hydroxycyclopropyl)phenyl)-5-fluoropicolinamide] | 7.19
14 | N[C@H]1CCC[C@@H](c2ccncc2NC(=O)c2ccc(F)c(-c3c(F)cc(C4(O)CCC4)cc3F)n2)C1 [Example 159, N-(4-((1R,3S)-3-aminocyclohexyl)pyridin-3-yl)-6-(2,6-difluoro-4-(1-hydroxycyclobutyl)phenyl)-5-fluoropicolinamide] | 7.01
15 | C[C@H]1C[C@@H](c2ccncc2NC(=O)c2ccc(F)c(-c3c(F)cc(C4(O)CCCC4)cc3F)n2)C[C@@H](N)[C@@H]1O [Example 161, N-(4-((1R,3R,4R,5S)-3-amino-4-hydroxy-5-methylcyclohexyl)pyridin-3-yl)-6-(2,6-difluoro-4-(1-hydroxycyclopentyl)phenyl)-5-fluoropicolinamide] | 7.47
16 | N[C@H]1CCC[C@@H](c2ccncc2NC(=O)c2ccc(F)c(-c3c(F)cc(C4(O)CCCC4)cc3F)n2)C1 [Example 162, N-(4-((1R,3S)-3-aminocyclohexyl)pyridin-3-yl)-6-(2,6-difluoro-4-(1-hydroxycyclopentyl)phenyl)-5-fluoropicolinamide] | 6.91
17 | N[C@H]1CCC[C@@H](c2ccncc2NC(=O)c2ccc(F)c(-c3c(F)cc(N4CCOCC4)cc3F)n2)C1 [Example 166, N-(4-((1R,3S)-3-aminocyclohexyl)pyridin-3-yl)-6-(2,6-difluoro-4-morpholinophenyl)-5-fluoropicolinamide] | 6.49
18 | CC(C)(C#N)c1cc(F)c(-c2nc(C(=O)Nc3cnccc3[C@@H]3CCC[C@H](N)C3)ccc2F)c(F)c1 [Example 167, N-(4-((1R,3S)-3-aminocyclohexyl)pyridin-3-yl)-6-(4-(2-cyanopropan-2-yl)-2,6-difluorophenyl)-5-fluoropicolinamide] | 6.39
19 | C[C@H]1C[C@@H](c2ccncc2NC(=O)c2ccc(F)c(-c3c(F)cc(C4(C#N)CCOCC4)cc3F)n2)C[C@@H](N)[C@@H]1O [Example 171, N-(4-((1R,3R,4R,5S)-3-amino-4-hydroxy-5-methylcyclohexyl)pyridin-3-yl)-6-(4-(4-cyanotetrahydro-2H-pyran-4-yl)-2,6-difluorophenyl)-5-fluoropicolinamide] | 7.11
20 | C[C@H]1C[C@@H](c2ccncc2NC(=O)c2ccc(F)c(-c3c(F)cc(C(C)(C)C(=O)O)cc3F)n2)C[C@@H](N)[C@@H]1O [Example 182, 2-(4-(6-(4-((1R,3R,4R,5S)-3-amino-4-hydroxy-5-methylcyclohexyl)pyridin-3-ylcarbamoyl)-3-fluoropyridin-2-yl)-3,5-difluorophenyl)-2-methylpropanoic acid] | < 5.00
